Experimental data published in EPA's ToxRefDB 2.

Assays:
[1] = system: rabbit; details: Prenatal developmental toxicity study, new zealand white, Oral, Gavage/Intubation, dose end: 18 GD, group: maternal
[2] = system: rat; details: Combined chronic toxicity/carcinogenicity; fischer; Inhalation; Whole-Body; dose end: 26 month; group: systemic; systemic / pathology microscopic / spleen / congestion + systemic / pathology microscopic / eye / degeneration + systemic / pathology …
[3] = system: mouse; details: Combined chronic toxicity/carcinogenicity; cd1; Inhalation; Whole-Body; dose end: 18 month; group: systemic; systemic / pathology microscopic / nose / [other] + systemic / pathology microscopic / nose / degeneration + systemic / pathology …
[4] = system: rat; details: Prenatal developmental toxicity study, sprague dawley, Oral, Gavage/Intubation, dose end: 15 GD, group: maternal
[5] = system: mouse; details: Subchronic oral toxicity in rodents, b6c3f1, Water, dose end: 13 week, group: systemic
[6] = system: mouse; details: Sub-acute repeat dose toxicity, b6c3f1, Oral, Water, dose end: 14 day, group: systemic
[7] = system: rabbit; details: Prenatal developmental toxicity study, new zealand white, Oral, Gavage/Intubation, dose end: 18 GD, group: maternal; remark: listed apart in the source
[8] = system: rat; details: Prenatal developmental toxicity study, sprague dawley, Oral, Gavage/Intubation, dose end: 15 GD, group: maternal; remark: listed apart in the source
[9] = system: rat; details: Neurotoxicity screening battery; sprague dawley; Oral; Gavage/Intubation; dose end: 13 week; group: cannot be grouped; systemic / hematology / [other] / [other] + systemic / hematology / heinz body / heinz body + systemic / hematology / leukocyte (wbc) count …
[10] = system: rat; details: Subchronic oral toxicity in rodents, fischer, Water, dose end: 13 week, group: systemic
[11] = system: rat; details: Multigenerational reproductive toxicity study, sprague dawley, Oral, Gavage/Intubation, dose end: 2 generation, group: parental
[12] = system: rat; details: Sub-acute repeat dose toxicity, fischer, Oral, Water, dose end: 14 day, group: systemic
[13] = reproductive / reproductive performance / aborted / aborted + reproductive / reproductive performance / resorptions / resorptions + systemic…
[14] = systemic / hematology / methemoglobin / methemoglobin + systemic / hematology / reticulocyte / reticulocyte
[15] = systemic / hematology / methemoglobin / methemoglobin + systemic / hematology / reticulocyte / reticulocyte + systemic / in life observation…
[16] = systemic / pathology microscopic / nose / degeneration + systemic / pathology microscopic / spleen / hematopoietic cell proliferation + …
[17] = systemic / in life observation / body weight / body weight
[18] = systemic / in life observation / body weight / body weight + systemic / in life observation / water consumption / water consumption
[19] = systemic / in life observation / body weight / body weight + systemic / in life observation / body weight / body weight gain + systemic / in…
[20] = systemic / pathology gross / spleen / enlarged
[21] = systemic / hematology / erythrocyte (rbc) count differential / erythrocyte (rbc) + systemic / hematology / hematocrit (hct) / hematocrit (…
[22] = systemic / hematology / erythrocyte (rbc) count differential / erythrocyte (rbc) + systemic / hematology / hemoglobin (hgb) / hemoglobin (…
[23] = systemic / pathology microscopic / liver / hematopoietic cell proliferation + systemic / pathology microscopic / liver / hemosiderosis + …
[24] = systemic / in life observation / body weight / body weight + systemic / in life observation / water consumption / water consumption + …

In the case of `CCC(C)=NO` [2-Butanone oxime], the LOAEL [1, 13] is reported as greater than 80 mg/kg/day, the NOAEL [1, 13] is reported as no less than 80 mg/kg/day and the LEL [1, 14] is reported as 10 mg/kg/day. It also gave an NEL [1, 14] of less than 10 mg/kg/day, an LEL [2] of 15 ppm and an LOAEL [2] greater than 375 ppm. For the same molecule, the NEL [2] was less than 15 ppm, the NOAEL [2] was no less than 375 ppm and the LEL [3] was 15 ppm. For the same molecule, the LOAEL [3] was greater than 375 ppm, the NEL [3] was less than 15 ppm and the NOAEL [3] was no less than 375 ppm. It also gave an LEL [4, 14] of 25 mg/kg/day, an NEL [4, 14] of less than 25 mg/kg/day and an LOAEL [4, 15] greater than 400 mg/kg/day. The NOAEL [4, 15] was no less than 400 mg/kg/day, the LOAEL ([5]; systemic / pathology microscopic / nose / degeneration + systemic / pathology microscopic / spleen / hematopoietic cell proliferation) was 755 mg/kg/day and the NEL [5, 16] was 110 mg/kg/day. It also gave an NOAEL [5, 16] of 515 mg/kg/day, an LEL ([5]; systemic / pathology microscopic / urinary bladder / hyperplasia) of 200 mg/kg/day and an LOAEL [6, 17] of 475 mg/kg/day. For the same molecule, the LEL [6, 18] was 475 mg/kg/day, the NEL [6, 18] was 300 mg/kg/day and the NOAEL [6, 18] was 300 mg/kg/day. The LOAEL [7, 13] was greater than 40 mg/kg/day, the NEL [7, 13] was 14 mg/kg/day and the NOAEL [7, 13] was no less than 40 mg/kg/day. It also gave an LEL ([7]; systemic / in life observation / body weight / body weight gain + systemic / in life observation / food consumption / food consumption) of 24 mg/kg/day, an LOAEL [8, 19] greater than 600 mg/kg/day and an NOAEL [8, 19] of no less than 600 mg/kg/day. It also gave an LEL [8, 20] of 60 mg/kg/day, an NEL [8, 20] of less than 60 mg/kg/day and an LEL [9] of 40 mg/kg/day. The LOAEL [9] was greater than 400 mg/kg/day, the NEL [9] was less than 40 mg/kg/day and the NOAEL [9] was no less than 400 mg/kg/day. It also gave an LOAEL [10, 21] of 50 mg/kg/day, an NOAEL [10, 21] of 25 mg/kg/day and an LEL [10, 22] of 25 mg/kg/day. The NEL [10, 22] was less than 25 mg/kg/day, the LOAEL [11, 21] was greater than 200 mg/kg/day and the NOAEL [11, 21] was no less than 200 mg/kg/day. For the same molecule, the LEL [11, 23] was 10 mg/kg/day, the NEL [11, 23] was less than 10 mg/kg/day and the LOAEL [12, 17] was 280 mg/kg/day. The NEL [12, 24] was 70 mg/kg/day, the NOAEL [12, 24] was 130 mg/kg/day and the LEL ([12]; systemic / in life observation / water consumption / water consumption + systemic / organ weight / spleen / absolute + systemic / organ …) was 130 mg/kg/day.
